Key:
purified HLA DRB1*0701 = molecular target: T1, purified HLA DRB1*0701 (Homo sapiens, UniProt P01903+P01911, A100R/A102G/A103Q/D57E/D86V/E43K/F76Y/K127E/L162R/M171V/P40G/Q125H/Q99D/R33Q/R42Y/R54Q/S133A/S66F/T210M/V115G/Y107V/Y59L/Y89S); experiment: HLA-DR radioligand binding inhibition assay, DRB1*0701; details: IC50 nM purified HLA DRB1 *0701, purified HLA DRB1*0701
T1 construct: purified from EBV transformed homozygous cell lines or single MHC allele transfected 721.221, C1R, or fibroblast lines; made in house
Procedure: (§1) Instead, wells of an opaque white 96-well Optiplate (Packard) are coated with 3 μg (100 μl@ 30 μg/ml) of HLA-specific antibody (Ab) that “capture” complexes of radiolabeled MHC and unlabeled peptide transferred from the molecular binding assay plate in 100 μl of 0.05% NP40/PBS. After a 3-hour incubation period, the supernatant is decanted and scintillation fluid (Microscint 20) added. Captured complexes are then measured on a microplate scintillation and luminescence counter (TopCount NXTTM; Packard).
(§2) HLA-DR purification. Fifteen distinct HLA-DR molecules were used in quantitative assays to measure the binding of peptides to solubilized HLA-DR molecules. […] Briefly, columns of inactivated Sepharose CL4B and Protein A Sepharose were used as pre-columns. HLA-DR molecules were captured by passage of lysates over LB3.1 monoclonal antibody (anti-HLA-DRA) columns. Antibody columns were washed with 10 mM Tris-HCL, pH8.0 with 1% (v/v) NP-40, followed by PBS containing 0.4% (w/v) n-octylglucoside.
(§3) Briefly, 1-10 nM of radiolabeled peptide was co-incubated for 2 days at either room temperature or 37° C. with 1 μM to 1 nM purified HLA-DR molecules in the presence of a cocktail of protease inhibitors. Assays were performed at various pH conditions, ranging from pH 4 to pH 7. […] After incubation, the percentage of HLA-DR-bound radioactivity is determined by capturing HLA-DR/peptide complexes on Optiplates (Packard Instruments, Meriden, Conn.) coated with the LB3.1 antibody and determining bound counts per minute using the TopCount microscintillation counter (Packard Instruments).

purified HLA DRB5*0101 = molecular target: T2, purified HLA DRB5*0101 (Homo sapiens, UniProt P01903+Q30154); experiment: HLA-DR radioligand binding inhibition assay, DRB5*0101; details: IC50 nM purified HLA DRB5 *0101, purified HLA DRB5*0101
T2 construct: purified from EBV transformed homozygous cell lines or single MHC allele transfected 721.221, C1R, or fibroblast lines; made in house
Procedure: as §1, §2, §3

purified HLA DRB1*0405 = molecular target: T3, purified HLA DRB1*0405 (Homo sapiens, UniProt P01903+P01911, A100R/A169T/D86S/F76Y/I96L/K127E/L162R/M171V/N62H/P40V/Q125Y/R42H/S133A/S149N/S66Y/V115G/V209L/W38E); experiment: HLA-DR radioligand binding inhibition assay, DRB1*0405; details: IC50 nM purified HLA DRB1 *0405, purified HLA DRB1*0405
T3 construct: purified from EBV transformed homozygous cell lines or single MHC allele transfected 721.221, C1R, or fibroblast lines; made in house
Procedure: as §1, §2, §3

purified HLA DRB1*0101 = molecular target: T4, purified HLA DRB1*0101 (Homo sapiens, UniProt P01903+P01911, A100R/D57E/F55L/F60I/F76Y/I96L/L162R/M171V/P40L/Q125E/R42F/V115G/Y59C); experiment: HLA-DR radioligand binding inhibition assay, DRB1*0101; details: IC50 nM purified HLA DRB1 *0101, purified HLA DRB1*0101
T4 construct: purified from EBV transformed homozygous cell lines or single MHC allele transfected 721.221, C1R, or fibroblast lines; made in house
Procedure: as §1, §2, §3

purified HLA DRB1*1302 = molecular target: T5, purified HLA DRB1*1302 (Homo sapiens, UniProt P01903+P01911, A100E/A169T/K41T/L162R/M171V/P40S/Q125H/Q178H/Q39Y/Q99D/R42S/S66N/T262R/V115G/W38E/Y61H); experiment: HLA-DR radioligand binding inhibition assay, DRB1*1302
T5 construct: purified from EBV transformed homozygous cell lines or single MHC allele transfected 721.221, C1R, or fibroblast lines; made in house
Procedure: as §1, §2, §3

purified HLA DRB1*0401 = molecular target: T6, purified HLA DRB1*0401 (Homo sapiens, UniProt P01903+P01911, A100K/A169T/F76Y/I96L/K127E/L162R/M171V/N62H/P40V/Q125Y/R42H/S133A/S149N/S66Y/V115G/V209L/W38E); experiment: HLA-DR radioligand binding inhibition assay, DRB1*0401; details: IC50 nM purified HLA DRB1 *0401, purified HLA DRB1*0401
T6 construct: purified from EBV transformed homozygous cell lines or single MHC allele transfected 721.221, C1R, or fibroblast lines; made in house
Procedure: as §1, §2, §3

purified HLA DRB1*1501 = molecular target: T7, purified HLA DRB1*1501 (Homo sapiens, UniProt P01903+P01911); experiment: HLA-DR radioligand binding inhibition assay, DRB1*1501
T7 construct: purified from EBV transformed homozygous cell lines or single MHC allele transfected 721.221, C1R, or fibroblast lines; made in house
Procedure: as §1, §2, §3

purified HLA DRB1*1101 = molecular target: T8, purified HLA DRB1*1101 (Homo sapiens, UniProt P01903+P01911, A100R/A169T/A87E/I96F/K41T/L162R/M171V/P40S/Q125H/Q178H/Q39Y/Q99D/R42S/S66Y/T262R/V115G/W38E); experiment: HLA-DR radioligand binding inhibition assay, DRB1*1101; details: IC50 nM purified HLA DRB1 *1101, purified HLA DRB1*1101
T8 construct: purified from EBV transformed homozygous cell lines or single MHC allele transfected 721.221, C1R, or fibroblast lines; made in house
T8 sequence (P01903 26-254, other chains not shown): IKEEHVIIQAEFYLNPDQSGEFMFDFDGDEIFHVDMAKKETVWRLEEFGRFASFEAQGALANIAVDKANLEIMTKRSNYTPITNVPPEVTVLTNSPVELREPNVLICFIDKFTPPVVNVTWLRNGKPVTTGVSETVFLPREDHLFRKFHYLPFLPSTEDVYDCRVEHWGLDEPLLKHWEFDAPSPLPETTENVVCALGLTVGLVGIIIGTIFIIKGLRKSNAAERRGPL
Procedure: as §1, §2, §3

Row | SMILES | IC50 (purified HLA DRB1*0701) [nM] | IC50 (purified HLA DRB5*0101) [nM] | IC50 (purified HLA DRB1*0405) [nM] | IC50 (purified HLA DRB1*0101) [nM] | IC50 (purified HLA DRB1*1302) [nM] | IC50 (purified HLA DRB1*0401) [nM] | IC50 (purified HLA DRB1*1501) [nM] | IC50 (purified HLA DRB1*1101) [nM]
1 | CC[C@H](C)[C@H](NC(=O)[C@H](CCC(N)=O)NC(=O)[C@H](CCSC)NC(=O)[C@H](CS)NC(=O)[C@H](Cc1c[nH]c2ccccc12)NC(=O)[C@H](CC(N)=O)NC(=O)[C@H](CC(C)C)NC(=O)[C@@H](N)CC(C)C)C(=O)N[C@@H](C)C(=O)N[C@@H](CCCCN)C(=O)NCC(=O)N[C@@H](CCSC)C(=O)N[C@@H](CO)C(=O)N[C@@H](Cc1ccc(O)cc1)C(=O)N[C@@H](CC(C)C)C(=O)O [Peptide 9019.0082] | 380 | 92 | – | – | – | – | – | –
2 | CC[C@H](C)[C@H](NC(=O)[C@@H](NC(=O)[C@H](CCC(=O)O)NC(=O)[C@H](CCCCN)NC(=O)[C@H](CCSC)NC(=O)[C@H](CCCCN)NC(=O)[C@H](CO)NC(=O)[C@H](C)N)[C@@H](C)O)C(=O)N1CCC[C@H]1C(=O)N[C@@H](CC(C)C)C(=O)N[C@H](C(=O)N[C@@H](C)C(=O)N[C@@H](CCC(=O)O)C(=O)N[C@@H](CCCCN)C(=O)N[C@@H](CC(C)C)C(=O)O)[C@@H](C)O [Peptide 9019.0158] | 220 | – | > 20000 | 130 | 550 | > 20000 | – | –
3 | CSCC[C@H](NC(=O)[C@H](C)NC(=O)[C@H](CC(C)C)NC(=O)[C@@H]1CCCN1C(=O)[C@H](Cc1ccccc1)NC(=O)[C@@H](NC(=O)[C@H](CCC(=O)O)NC(=O)[C@H](CCC(=O)O)NC(=O)[C@@H](N)CCC(=O)O)C(C)C)C(=O)N[C@@H](CC(N)=O)C(=O)N[C@@H](Cc1ccc(O)cc1)C(=O)N[C@@H](CC(C)C)C(=O)N[C@@H](CC(=O)O)C(=O)N[C@@H](CCCNC(=N)N)C(=O)N[C@@H](Cc1ccccc1)C(=O)O [Peptide 9019.0152] | – | – | – | 850 | 26 | – | 77 | –
4 | CC[C@H](C)[C@H](NC(=O)[C@@H](NC(=O)[C@@H]1CCCN1C(=O)[C@H](C)NC(=O)[C@H](CC(=O)O)NC(=O)[C@@H]1CCCN1C(=O)CNC(=O)[C@H](Cc1ccc(O)cc1)NC(=O)[C@H](CC(C)C)NC(=O)[C@@H](NC(=O)[C@H](CC(N)=O)NC(=O)[C@@H](N)CC(C)C)C(C)C)[C@@H](C)O)C(=O)N[C@@H](CO)C(=O)N1CCC[C@H]1C(=O)N[C@@H](CC(C)C)C(=O)O [Peptide 9019.0120] | 410 | > 20000 | > 20000 | – | – | – | – | > 20000
5 | CC[C@H](C)[C@H](NC(=O)[C@H](CCCNC(=N)N)NC(=O)[C@@H](N)CCSC)C(=O)N[C@@H](CC(C)C)C(=O)N[C@@H](CCCCN)C(=O)N[C@@H](CCC(=O)O)C(=O)N[C@H](C(=O)N[C@@H](CCC(=O)O)C(=O)N[C@@H](CC(C)C)C(=O)N[C@@H](CCCNC(=N)N)C(=O)N[C@@H](CCCCN)C(=O)N[C@H](C(=O)N[C@@H](CCCCN)C(=O)N[C@H](C(=O)N[C@@H](CC(C)C)C(=O)O)C(C)C)C(C)C)[C@@H](C)O [Peptide 9019.0072] | – | – | – | – | – | – | – | 2130
6 | CC[C@H](C)[C@H](NC(=O)[C@@H](NC(=O)[C@H](CCC(=O)O)NC(=O)[C@H](CCCCN)NC(=O)[C@H](CCSC)NC(=O)[C@H](CCCCN)NC(=O)[C@H](CO)NC(=O)[C@H](C)NC(=O)[C@@H](NC(=O)[C@H](Cc1ccccc1)NC(=O)[C@H](CCSC)NC(=O)[C@H](CS)NC(=O)[C@@H](N)[C@@H](C)O)C(C)C)[C@@H](C)O)C(=O)N1CCC[C@H]1C(=O)N[C@@H](CC(C)C)C(=O)O [Peptide 9019.0157] | 17 | 36 | – | – | – | – | – | 61
7 | CSCC[C@H](NC(=O)CNC(=O)[C@H](CC(C)C)NC(=O)[C@H](CC(=O)O)NC(=O)CNC(=O)[C@@H](N)CC(=O)O)C(=O)NCC(=O)N[C@@H](C)C(=O)N[C@@H](C)C(=O)N[C@@H](CCCCN)C(=O)NCC(=O)N[C@@H](CC(C)C)C(=O)N[C@@H](CCC(N)=O)C(=O)N[C@@H](CO)C(=O)N[C@@H](CC(C)C)C(=O)O [Peptide 9019.0097] | – | – | 5800 | 110 | 3230 | – | – | –

— patent US20140377340A1, “HLA-DR BINDING PEPTIDES AND THEIR USES” (priority 2007, published 2014)
